Measurements reported in patent US12186314B2, “Compositions and methods for treatment, amelioration, and prevention of anesthesia-induced hypothermia” (ARIZONA BOARD OF REGENTS ON BEHALF OF THE UNIVERSITY OF …, priority 2015, dated 2025).
Entries after “also recorded” stand apart in the source; their conditions may differ. Read-outs that look alike come from different tables or passages of the source.

What was measured:
TRPV1 [1] = molecular target: T1, TRPV1 (Rattus norvegicus, UniProt O35433); parameters: from tissue; host or cells: whole live non-anesthetized rats; conditions: non-anesthetized (unanesthetized) rats, cited from earlier work
T1 sequence (O35433 whole entry): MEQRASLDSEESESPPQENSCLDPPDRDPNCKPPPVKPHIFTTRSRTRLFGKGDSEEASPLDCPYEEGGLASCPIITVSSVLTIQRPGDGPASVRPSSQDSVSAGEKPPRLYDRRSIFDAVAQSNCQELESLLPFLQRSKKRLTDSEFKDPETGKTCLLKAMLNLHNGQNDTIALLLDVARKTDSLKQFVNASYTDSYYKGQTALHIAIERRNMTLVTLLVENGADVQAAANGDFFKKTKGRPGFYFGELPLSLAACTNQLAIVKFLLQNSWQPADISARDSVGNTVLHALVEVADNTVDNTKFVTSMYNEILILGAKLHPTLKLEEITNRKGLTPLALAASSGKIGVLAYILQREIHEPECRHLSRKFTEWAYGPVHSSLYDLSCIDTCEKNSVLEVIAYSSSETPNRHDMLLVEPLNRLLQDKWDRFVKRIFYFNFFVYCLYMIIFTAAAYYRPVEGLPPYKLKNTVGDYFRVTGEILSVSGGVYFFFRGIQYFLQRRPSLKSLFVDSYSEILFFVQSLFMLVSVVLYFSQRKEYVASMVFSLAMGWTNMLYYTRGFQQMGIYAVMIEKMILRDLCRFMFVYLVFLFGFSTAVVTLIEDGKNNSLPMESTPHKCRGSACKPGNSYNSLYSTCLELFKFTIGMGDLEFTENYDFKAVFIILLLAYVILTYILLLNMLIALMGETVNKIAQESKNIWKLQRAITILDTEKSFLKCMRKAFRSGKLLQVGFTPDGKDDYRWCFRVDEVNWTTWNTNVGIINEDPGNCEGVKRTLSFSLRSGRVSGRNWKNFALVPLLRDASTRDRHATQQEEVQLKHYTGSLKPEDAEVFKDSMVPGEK

TRPV1 [2] = molecular target: T2, TRPV1 (Homo sapiens, UniProt Q8NER1); conditions: non-anesthetized humans; cited from earlier work
T2 construct: host or cells: human subjects (clinical observations)
T2 sequence (Q8NER1 whole entry): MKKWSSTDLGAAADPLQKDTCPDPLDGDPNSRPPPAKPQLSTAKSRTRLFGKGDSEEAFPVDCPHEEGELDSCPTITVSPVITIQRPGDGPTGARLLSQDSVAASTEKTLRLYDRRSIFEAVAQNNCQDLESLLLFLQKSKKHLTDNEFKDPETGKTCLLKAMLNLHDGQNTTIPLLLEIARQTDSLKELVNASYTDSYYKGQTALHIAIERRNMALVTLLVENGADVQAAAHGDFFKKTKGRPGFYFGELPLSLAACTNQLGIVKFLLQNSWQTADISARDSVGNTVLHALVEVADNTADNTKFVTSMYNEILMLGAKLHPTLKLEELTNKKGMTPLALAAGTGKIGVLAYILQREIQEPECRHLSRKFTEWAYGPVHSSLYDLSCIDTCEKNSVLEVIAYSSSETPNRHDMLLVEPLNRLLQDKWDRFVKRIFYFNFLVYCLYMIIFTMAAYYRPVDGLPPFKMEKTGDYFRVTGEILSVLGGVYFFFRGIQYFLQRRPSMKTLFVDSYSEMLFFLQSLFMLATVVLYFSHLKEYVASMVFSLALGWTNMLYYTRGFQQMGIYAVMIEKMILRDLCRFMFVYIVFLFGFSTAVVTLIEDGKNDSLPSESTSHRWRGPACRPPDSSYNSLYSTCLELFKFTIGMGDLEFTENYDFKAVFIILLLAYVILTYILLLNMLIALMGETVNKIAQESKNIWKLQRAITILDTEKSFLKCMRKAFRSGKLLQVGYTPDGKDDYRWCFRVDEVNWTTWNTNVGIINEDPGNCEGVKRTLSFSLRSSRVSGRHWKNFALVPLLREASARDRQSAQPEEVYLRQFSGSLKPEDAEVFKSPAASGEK

TRPV1 [3] = molecular target: T1, TRPV1; assay: isoflurane anesthesia-induced hypothermia in adult rats, various TRPV1 antagonists, rectal temperature; assay type: in vivo; parameters: from tissue; host or cells: whole live non-anesthetized rats; conditions: isoflurane 2 L/min, 5% induction, 2.5% maintenance, 20 minutes post anesthesia-induction
Method: After acclimatizing to the testing chamber and obtaining baseline core body temperature, adult rats were anesthetized with isoflurane (2 L/min, 5% induction, 2.5% maintenance) and the anesthetized animals were injected with vehicle or various TRPV1 antagonists at doses described and rectal temperature was monitored for 20 minutes post anesthesia-induction.

TRPV1 [4] = molecular target: T1, TRPV1; conditions: 24 hours post surgery
TRPV1 [5] = molecular target: T1, TRPV1; assay: volatile (isoflurane) anesthesia-induced hypothermia in adult rats, rectal core body temperature; assay type: in vivo; parameters: from tissue; host or cells: whole live non-anesthetized rats; conditions: isoflurane 5% induction, 2.5% maintenance, 0.01, 0.1 and 1 mg/kg, 5 min intervals, 0.1 and 1 mg/kg significant at all time points (p<0.01)
Method: Briefly, after obtaining baseline core body temperature, lightly restrained rats were anesthetized with isoflurane (5% induction, 2.5% maintenance), the effect of varying dose of AMG 517 (0.01, 0.1 and 1 mg/kg) and control (vehicle) on rectally-measured temperature (core body temperature) was measured at 5 min intervals. At 20 minutes, a warming blanket was used to prevent further temperature drop in the control (vehicle) group. Vehicle treated rats developed hypothermia after exposure to anesthesia.

TRPV1 [6] = molecular target: T1, TRPV1; assay: isoflurane anesthesia-induced hypothermia in neonatal rats, core body temperature; assay type: in vivo; parameters: from tissue; host or cells: whole live non-anesthetized rats; conditions: neonatal rats (age 10d), 1 mg/kg i.v. (at 20 min time point) and 2 mg/kg (all time points)
Method: Briefly, after gently separating neonatal male or female rats (age 10d) from the littermates, the animals were exposed to isoflurane anesthesia (5% induction, 2.5% maintenance), and then were injected with either vehicle or AMG 517 (1-2 mg/kg, i.v.) and core body temperature was measured at 5 minute intervals.

TRPV1 [7] = molecular target: T1, TRPV1; assay: core body temperature during isoflurane anesthesia and in the post-anesthesia period; assay type: in vivo; parameters: from tissue; host or cells: whole live non-anesthetized rats; conditions: rats
Method: After taking baseline core body temperature, rats were anesthetized with isoflurane and quickly injected with either vehicle or 0.1 mg/kg of AMG 517 via a tail vein injection. The core body temperature was measured every 5 minutes during the duration of anesthesia (45 min) and 30 minutes after that (n=8 per group) (see, FIG. 3).

TRPV1 [8] = molecular target: T1, TRPV1; assay: ketamine-induced hypothermia in rats, core body temperature; assay type: in vivo; parameters: from tissue; host or cells: whole live non-anesthetized rats; conditions: ketamine 100 mg/kg, 0.01-1 mg/kg tail vein
Method: This example describes the use of AMG 517 to reverse hypothermia induced by a non-volatile anesthetic (ketamine) (FIG. 5). After taking baseline core body temperature, rats were anesthetized with ketamine (100 mg/kg) and quickly injected with either vehicle or 0.01-1 mg/kg of AMG 517 via a tail vein injection. The core body temperature was measured every 5 minutes for 20 minutes post ketamine injection (n=8 per group).

Row | SMILES | ability to cause hyperthermia (TRPV1 [1]) | ability to cause hyperthermia (TRPV1 [2]) | reversal/prevention of anesthesia-induced hypothermia (rectal temperature) (TRPV1 [3]) | also measured
1 | Cc1cc2c(NC(=O)N[C@@H]3CC(CF)(CF)Oc4cc(Cl)ccc43)cccc2cn1 [A-1165442] | unable to cause hyperthermia |  |  | 
2 | CC(C)(C)c1ccc2c(c1)CC[C@H]2NC(=O)Nc1cccc2[nH]ncc12 [ABT 102] | able to cause hyperthermia | able to cause hyperthermia | dose dependently reverse anesthesia-induced hypothermia | ability to cause hyperthermia (TRPV1 [1]; listed as ABT): cause hyperthermia in unanesthetized rats
3 | CC(=O)Nc1nc2c(Oc3cc(-c4ccc(C(F)(F)F)cc4)ncn3)cccc2s1 [AMG 517] | able to cause hyperthermia | able to cause hyperthermia |  | opioid sparing effect on postsurgical thermal and mechanical hyperalgesia (TRPV1 [4]; rats, preemptive tail vein dose before incision, subcutaneous morphine): opioid sparing effect; reversal of anesthesia-induced hypothermia (rectally-measured core body temperature) (TRPV1 [5]): dose dependently reversed anesthesia-induced hypothermia; reversal of anesthesia-induced hypothermia (core body temperature) (TRPV1 [6]): partially and statistically significantly; hyperthermia in the post-anesthesia period (TRPV1 [7]; 0.1 mg/kg tail vein, 30 minutes after anesthesia, 0.1 mg/kg): does not produce hyperthermia in the post-anesthesia period; also recorded: did not cause hyperthermia even when the animals recovered from anesthesia; development of hypothermia during anesthesia (core body temperature) (TRPV1 [7]; isoflurane 45 min, 0.1 mg/kg tail vein injection): never developed hypothermia throughout the anesthesia period; hyperthermia under ketamine anesthesia (TRPV1 [8]): without causing hyperthermia at all time points tested; reversal of ketamine-induced hypothermia (core body temperature) (TRPV1 [8]; 20 minutes post ketamine): dose dependently and statistically significantly
4 | CC(C)(C)c1ccc(/C=C/C(=O)Nc2ccc3c(c2)OCCO3)cc1 [AMG 9810] | able to cause hyperthermia | able to cause hyperthermia | dose dependently reverse anesthesia-induced hypothermia | ability to cause hyperthermia (TRPV1 [1]; listed as AMG): cause hyperthermia in unanesthetized rats
5 | COc1cccc(NC(=O)/C=C/c2ccc(Cl)cc2)c1 [SB366791] | unable to cause hyperthermia |  | dose dependently reverse anesthesia-induced hypothermia | ability to cause hyperthermia (TRPV1 [1]; listed as SB): cause hyperthermia in unanesthetized rats
6 | Oc1cc2c(cc1O)CN(C(=S)NCCc1ccc(Cl)cc1)CCC2 [capsazepine] | unable to cause hyperthermia; also recorded: don't |  | able to prevent anesthesia-induced hypothermia; also recorded: dose dependently reverse anesthesia-induced hypothermia | 
7 | CN1CC[C@]23c4c5ccc(O)c4O[C@H]2[C@@H](O)C=C[C@H]3[C@H]1C5 [morphine] |  |  |  | morphine analgesic effect on postsurgical thermal and mechanical hyperalgesia (TRPV1 [4]; animals that received preemptive TRPV1 antagonist treatment before the surgical insult): analgesic effect at much lower doses of 0.3 and 0.6 mg/kg; morphine analgesic effect on postsurgical thermal and mechanical hyperalgesia (TRPV1 [4]; vehicle treated animals): not responsive to morphine until the dose of morphine was raised to 1 mg/kg
